The values that follow come from publication PMC3422278 (2012).

Assay [1] concerns Pu24I (DNA, G4, inosine at 10 (G-to-I)) TGAGGGTGGGGAGGGTGGGGAAGG
Nature of the assay: 1H NMR titration (imino proton shifts). As to conditions: 150 mM KCl, 25 mM KH2PO4; 1 mM EDTA, pH 7.0, 298 K, 90% H2O/10% D2O; 1.0 mM DNA.

Assay [2] concerns Pu27 (DNA, G4) TGGGGAGGGTGGGGAGGGTGGGGAAGG
Nature of the assay: PCR stop assay (Taq polymerase). As to conditions: 1x PCR buffer, extension 72 °C, indirect.

`C[C@@H]1C(=O)O[C@H]2[C@H]1CC[C@@]1(C)Cc3sc(NC(=O)Nc4ccc(Oc5ccccc5)cc4)nc3[C@@H](C)[C@H]21`: the binding result is listed as “yes” in assay [1] and “weak” in assay [2] (10 µM oligomers, complementary primer, effect at 125 µM, 250 µM).
Regarding `COc1cc(NC(=O)Nc2nc3c(s2)C[C@]2(C)CC[C@@H]4[C@H](OC(=O)[C@H]4C)[C@H]2[C@@H]3C)cc(OC)c1`, in assay [2] (inhibition only at higher concentration (500 µM)), the binding result is listed as “weak”.
